In the kinase profiling compilation of Christmann-Franck et al. (2016):

What was measured:
Assay in all cases: KINOMEscan competition binding
Details in all cases: compound 10.0 µM
CLK1 (human) = CLK1 (human) (UniProt P49759)
FLT3 (human) = FLT3 (human) (UniProt P36888)
CAMKK2 (human) = CAMKK2 (human) (UniProt Q96RR4)
PLK4 (human) = PLK4 (human) (UniProt O00444)
MKNK2 (human) = MKNK2 (human) (UniProt Q9HBH9)
AURKB (human) = AURKB (human) (UniProt Q96GD4)
CIT (human) = CIT (human) (UniProt O14578)
MAP3K7 (human) = MAP3K7 (human) (UniProt O43318)
BRSK2 (human) = BRSK2 (human) (UniProt Q8IWQ3)
KIT (human) = KIT (human) (UniProt P10721)
RPS6KA1 KD2 (human) = RPS6KA1 KD2 (human) (UniProt Q15418)
DAPK1 (human) = DAPK1 (human) (UniProt P53355)
STK16 (human) = STK16 (human) (UniProt O75716)
[1] = tested on: EGFR (human), P00533 [G719S]
TNIK (human) = TNIK (human) (UniProt Q9UKE5)
GAK (human) = GAK (human) (UniProt O14976)
[2] = tested on: FLT3 (human), P36888 [ITD]
PIM2 (human) = PIM2 (human) (UniProt Q9P1W9)
STK24 (human) = STK24 (human) (UniProt Q9Y6E0)
CSNK2A2 (human) = CSNK2A2 (human) (UniProt P19784)
DYRK1B (human) = DYRK1B (human) (UniProt Q9Y463)
MAP4K4 (human) = MAP4K4 (human) (UniProt O95819)
PIK3CG (human) = PIK3CG (human) (UniProt P48736)
CAMKK1 (human) = CAMKK1 (human) (UniProt Q8N5S9)
STK17B (human) = STK17B (human) (UniProt O94768)
MYLK3 (human) = MYLK3 (human) (UniProt Q32MK0)
RIOK2 (human) = RIOK2 (human) (UniProt Q9BVS4)
CLK4 (human) = CLK4 (human) (UniProt Q9HAZ1)
RIOK3 (human) = RIOK3 (human) (UniProt O14730)
SRPK3 (human) = SRPK3 (human) (UniProt Q9UPE1)
ACVR1 (human) = ACVR1 (human) (UniProt Q04771)
[3] = tested on: FLT3 (human), P36888 [K663Q]
CSNK1D (human) = CSNK1D (human) (UniProt P48730)
GSK3A (human) = GSK3A (human) (UniProt P49840)
[4] = tested on: EIF2AK4 KD2 (human), Q9P2K8 [S808G]
BMPR1B (human) = BMPR1B (human) (UniProt O00238)
CSNK1G3 (human) = CSNK1G3 (human) (UniProt Q9Y6M4)
RPS6KA5 KD2 (human) = RPS6KA5 KD2 (human) (UniProt O75582)
MELK (human) = MELK (human) (UniProt Q14680)
RIPK4 (human) = RIPK4 (human) (UniProt P57078)
PRKD3 (human) = PRKD3 (human) (UniProt O94806)

ACVR1 (human), sequence (Q04771 whole entry, looked up): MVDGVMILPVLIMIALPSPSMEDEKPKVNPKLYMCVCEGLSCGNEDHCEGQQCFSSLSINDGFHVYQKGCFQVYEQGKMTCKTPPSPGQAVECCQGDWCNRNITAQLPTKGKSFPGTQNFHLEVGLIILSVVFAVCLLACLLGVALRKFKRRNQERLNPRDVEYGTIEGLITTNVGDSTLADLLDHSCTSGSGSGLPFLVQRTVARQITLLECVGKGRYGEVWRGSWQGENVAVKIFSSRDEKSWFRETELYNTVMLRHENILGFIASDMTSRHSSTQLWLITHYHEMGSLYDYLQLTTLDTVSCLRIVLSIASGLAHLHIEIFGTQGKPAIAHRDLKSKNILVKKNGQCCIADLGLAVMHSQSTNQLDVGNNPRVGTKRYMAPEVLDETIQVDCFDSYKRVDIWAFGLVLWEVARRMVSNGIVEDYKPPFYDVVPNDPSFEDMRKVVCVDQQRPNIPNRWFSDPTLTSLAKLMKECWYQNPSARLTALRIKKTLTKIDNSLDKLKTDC
PIM2 (human), sequence (Q9P1W9 whole entry, looked up): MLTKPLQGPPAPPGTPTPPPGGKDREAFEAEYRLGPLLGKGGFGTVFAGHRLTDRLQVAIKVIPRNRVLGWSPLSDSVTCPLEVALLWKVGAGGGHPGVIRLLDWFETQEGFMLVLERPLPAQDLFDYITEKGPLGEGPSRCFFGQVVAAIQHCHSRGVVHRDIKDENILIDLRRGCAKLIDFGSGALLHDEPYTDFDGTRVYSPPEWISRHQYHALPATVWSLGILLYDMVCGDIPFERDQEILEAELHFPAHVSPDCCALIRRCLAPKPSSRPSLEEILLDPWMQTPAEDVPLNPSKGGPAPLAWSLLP
CSNK2A2 (human), sequence (P19784 whole entry, looked up): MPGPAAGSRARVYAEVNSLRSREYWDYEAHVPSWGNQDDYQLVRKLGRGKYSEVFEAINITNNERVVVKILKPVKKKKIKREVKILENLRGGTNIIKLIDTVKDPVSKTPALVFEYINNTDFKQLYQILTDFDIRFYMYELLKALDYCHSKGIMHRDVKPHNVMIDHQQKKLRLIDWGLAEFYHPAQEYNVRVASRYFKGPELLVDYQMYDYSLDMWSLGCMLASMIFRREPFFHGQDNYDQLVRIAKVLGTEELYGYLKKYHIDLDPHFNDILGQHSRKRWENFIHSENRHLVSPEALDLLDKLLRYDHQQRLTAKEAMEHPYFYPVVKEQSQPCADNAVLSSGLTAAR
PLK4 (human), sequence (O00444 whole entry, looked up): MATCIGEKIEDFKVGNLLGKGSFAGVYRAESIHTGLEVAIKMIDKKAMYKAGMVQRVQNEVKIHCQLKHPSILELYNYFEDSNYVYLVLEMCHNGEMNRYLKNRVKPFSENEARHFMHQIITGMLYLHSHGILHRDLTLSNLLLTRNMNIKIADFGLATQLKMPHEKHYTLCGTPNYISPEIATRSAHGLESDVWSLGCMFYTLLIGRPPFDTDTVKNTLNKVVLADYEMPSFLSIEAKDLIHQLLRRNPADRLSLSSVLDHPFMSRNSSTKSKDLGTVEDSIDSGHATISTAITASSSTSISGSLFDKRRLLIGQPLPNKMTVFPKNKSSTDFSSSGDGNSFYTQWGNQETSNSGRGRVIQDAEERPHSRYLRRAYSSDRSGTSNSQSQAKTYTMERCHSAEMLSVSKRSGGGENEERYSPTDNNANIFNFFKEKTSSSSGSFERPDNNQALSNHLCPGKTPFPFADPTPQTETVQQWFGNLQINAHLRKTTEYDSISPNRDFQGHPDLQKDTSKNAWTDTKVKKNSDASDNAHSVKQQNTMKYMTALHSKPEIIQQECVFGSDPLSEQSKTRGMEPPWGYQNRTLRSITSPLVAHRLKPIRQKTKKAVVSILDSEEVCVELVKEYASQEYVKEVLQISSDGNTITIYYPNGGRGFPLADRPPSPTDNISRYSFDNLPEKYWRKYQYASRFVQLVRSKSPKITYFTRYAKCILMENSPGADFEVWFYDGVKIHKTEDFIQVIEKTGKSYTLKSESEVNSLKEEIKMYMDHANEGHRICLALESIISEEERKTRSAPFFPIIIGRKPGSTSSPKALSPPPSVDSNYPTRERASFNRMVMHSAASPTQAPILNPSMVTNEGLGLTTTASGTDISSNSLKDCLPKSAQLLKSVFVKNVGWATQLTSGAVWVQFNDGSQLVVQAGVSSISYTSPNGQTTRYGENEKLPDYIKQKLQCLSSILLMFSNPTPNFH
MKNK2 (human), sequence (Q9HBH9 whole entry, looked up): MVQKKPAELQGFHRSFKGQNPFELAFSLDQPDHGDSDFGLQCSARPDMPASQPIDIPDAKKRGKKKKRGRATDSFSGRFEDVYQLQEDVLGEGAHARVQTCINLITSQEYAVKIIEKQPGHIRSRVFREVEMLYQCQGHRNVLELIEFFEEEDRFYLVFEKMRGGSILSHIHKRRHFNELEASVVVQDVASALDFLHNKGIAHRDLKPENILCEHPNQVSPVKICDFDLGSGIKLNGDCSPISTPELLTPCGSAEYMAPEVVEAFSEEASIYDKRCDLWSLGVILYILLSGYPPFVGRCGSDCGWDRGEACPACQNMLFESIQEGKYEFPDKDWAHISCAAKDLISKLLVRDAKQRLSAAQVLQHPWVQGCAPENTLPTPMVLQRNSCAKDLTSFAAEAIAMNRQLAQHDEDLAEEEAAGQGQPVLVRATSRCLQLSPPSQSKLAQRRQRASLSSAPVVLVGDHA
BMPR1B (human), sequence (O00238 whole entry, looked up): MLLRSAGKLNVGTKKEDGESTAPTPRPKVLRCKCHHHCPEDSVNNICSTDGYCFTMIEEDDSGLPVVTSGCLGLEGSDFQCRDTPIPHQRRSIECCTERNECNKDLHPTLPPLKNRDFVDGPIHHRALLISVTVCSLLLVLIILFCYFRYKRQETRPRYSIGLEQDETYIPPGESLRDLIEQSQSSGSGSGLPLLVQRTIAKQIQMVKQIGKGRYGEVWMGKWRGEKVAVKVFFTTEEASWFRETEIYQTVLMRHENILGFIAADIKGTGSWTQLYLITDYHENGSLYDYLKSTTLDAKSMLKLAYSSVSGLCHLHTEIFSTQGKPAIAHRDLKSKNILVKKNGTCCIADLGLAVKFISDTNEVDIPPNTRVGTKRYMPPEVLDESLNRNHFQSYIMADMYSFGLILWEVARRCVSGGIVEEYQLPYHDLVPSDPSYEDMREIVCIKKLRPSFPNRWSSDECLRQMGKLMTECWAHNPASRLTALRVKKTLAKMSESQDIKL
RPS6KA1 KD2 (human), sequence (Q15418 whole entry, looked up): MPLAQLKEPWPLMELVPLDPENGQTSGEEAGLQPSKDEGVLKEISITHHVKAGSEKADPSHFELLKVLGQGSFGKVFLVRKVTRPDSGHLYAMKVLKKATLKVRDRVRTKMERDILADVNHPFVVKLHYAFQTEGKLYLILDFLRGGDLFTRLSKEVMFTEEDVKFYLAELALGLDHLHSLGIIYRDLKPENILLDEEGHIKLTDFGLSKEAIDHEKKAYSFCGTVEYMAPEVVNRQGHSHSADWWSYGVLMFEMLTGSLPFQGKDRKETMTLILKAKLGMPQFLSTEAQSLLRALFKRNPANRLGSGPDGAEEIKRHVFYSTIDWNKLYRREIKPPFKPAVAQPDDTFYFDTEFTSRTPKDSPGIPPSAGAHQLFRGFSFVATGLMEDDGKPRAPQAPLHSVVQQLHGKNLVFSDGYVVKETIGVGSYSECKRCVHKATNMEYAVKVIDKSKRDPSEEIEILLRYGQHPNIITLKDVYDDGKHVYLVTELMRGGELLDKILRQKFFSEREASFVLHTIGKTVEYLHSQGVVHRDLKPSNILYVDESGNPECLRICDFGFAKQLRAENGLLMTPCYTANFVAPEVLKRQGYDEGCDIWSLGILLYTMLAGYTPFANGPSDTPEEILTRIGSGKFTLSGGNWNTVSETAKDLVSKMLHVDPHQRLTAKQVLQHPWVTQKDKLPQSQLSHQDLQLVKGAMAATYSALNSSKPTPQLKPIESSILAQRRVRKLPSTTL
MAP3K7 (human), sequence (O43318 whole entry, looked up): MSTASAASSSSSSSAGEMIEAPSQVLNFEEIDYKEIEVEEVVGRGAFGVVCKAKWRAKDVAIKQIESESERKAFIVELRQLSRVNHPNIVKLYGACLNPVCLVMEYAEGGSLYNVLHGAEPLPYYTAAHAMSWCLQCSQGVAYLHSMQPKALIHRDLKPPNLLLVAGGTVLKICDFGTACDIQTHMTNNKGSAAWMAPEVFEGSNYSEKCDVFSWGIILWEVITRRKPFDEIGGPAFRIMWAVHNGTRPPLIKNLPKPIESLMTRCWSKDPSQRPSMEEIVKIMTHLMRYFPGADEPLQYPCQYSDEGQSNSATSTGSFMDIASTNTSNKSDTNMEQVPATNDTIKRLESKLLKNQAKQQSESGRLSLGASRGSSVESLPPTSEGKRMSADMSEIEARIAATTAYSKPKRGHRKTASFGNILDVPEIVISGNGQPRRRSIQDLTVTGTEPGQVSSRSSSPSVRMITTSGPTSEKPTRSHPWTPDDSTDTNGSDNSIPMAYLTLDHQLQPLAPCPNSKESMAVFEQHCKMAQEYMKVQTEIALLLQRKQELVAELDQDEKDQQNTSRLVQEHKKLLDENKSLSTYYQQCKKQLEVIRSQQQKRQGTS
RIOK3 (human), sequence (O14730 whole entry, looked up): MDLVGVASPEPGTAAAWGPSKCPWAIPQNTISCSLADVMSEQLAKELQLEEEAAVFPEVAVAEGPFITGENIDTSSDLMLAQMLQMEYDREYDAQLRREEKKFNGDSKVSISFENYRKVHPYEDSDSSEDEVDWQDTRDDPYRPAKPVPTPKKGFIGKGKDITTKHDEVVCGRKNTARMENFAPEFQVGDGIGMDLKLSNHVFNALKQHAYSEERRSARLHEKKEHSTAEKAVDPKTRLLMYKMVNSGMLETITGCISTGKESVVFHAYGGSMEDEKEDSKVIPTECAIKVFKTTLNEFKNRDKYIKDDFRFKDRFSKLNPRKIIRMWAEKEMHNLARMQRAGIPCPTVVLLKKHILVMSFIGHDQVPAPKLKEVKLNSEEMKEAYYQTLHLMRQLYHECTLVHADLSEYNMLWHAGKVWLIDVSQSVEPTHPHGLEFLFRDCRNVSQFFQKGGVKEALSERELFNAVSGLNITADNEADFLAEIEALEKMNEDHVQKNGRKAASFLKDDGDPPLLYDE

Row | Structure (SMILES) | kinase still bound, per cent of control (CLK1 (human)) | kinase still bound, per cent of control (CAMKK2 (human)) | kinase still bound, per cent of control (PLK4 (human)) | kinase still bound, per cent of control (MKNK2 (human)) | kinase still bound, per cent of control (MAP3K7 (human)) | kinase still bound, per cent of control (BRSK2 (human)) | kinase still bound, per cent of control (RPS6KA1 KD2 (human)) | kinase still bound, per cent of control (DAPK1 (human)) | kinase still bound, per cent of control (TNIK (human)) | kinase still bound, per cent of control (GAK (human)) | kinase still bound, per cent of control (PIM2 (human)) | kinase still bound, per cent of control (CSNK2A2 (human)) | kinase still bound, per cent of control (DYRK1B (human)) | kinase still bound, per cent of control (MAP4K4 (human)) | kinase still bound, per cent of control (PIK3CG (human)) | kinase still bound, per cent of control (STK17B (human)) | kinase still bound, per cent of control (MYLK3 (human)) | kinase still bound, per cent of control (RIOK3 (human)) | kinase still bound, per cent of control (SRPK3 (human)) | kinase still bound, per cent of control (BMPR1B (human)) | also measured
1 | O=C1NC(=S)S/C1=C\c1ccc(-c2cncc3ccccc23)o1 | 5.6% | 14% | 0.85% | 23% | 28% | 29% | 2.6% | 9.6% | 11% | 1.3% | 0.55% | 5.6% | 13% | 25% | 16% | 0.25% | 8.7% | 5.5% | 14% |  | kinase still bound, per cent of control (FLT3 (human)): 16%; kinase still bound, per cent of control (AURKB (human)): 27%; kinase still bound, per cent of control (CIT (human)): 28%; kinase still bound, per cent of control (KIT (human)): 21%; kinase still bound, per cent of control (STK16 (human)): 9.8%; kinase still bound, per cent of control [1]: 27%; kinase still bound, per cent of control [2]: 6.2%; kinase still bound, per cent of control (STK24 (human)): 12%; kinase still bound, per cent of control (CAMKK1 (human)): 5.6%; kinase still bound, per cent of control (RIOK2 (human)): 3.4%; kinase still bound, per cent of control (CLK4 (human)): 6.1%; kinase still bound, per cent of control (ACVR1 (human)): 14%; kinase still bound, per cent of control [3]: 14%
2 | N=C1NC(=O)/C(=C/c2ccc(-c3csc4ccccc34)o2)S1 | 20% |  | 5.2% | 34% |  | 18% | 14% | 15% |  |  | 0.3% | 11% | 25% |  |  | 0.4% | 21% |  |  |  | kinase still bound, per cent of control (CSNK1D (human)): 34%; kinase still bound, per cent of control (GSK3A (human)): 0%; kinase still bound, per cent of control (STK24 (human)): 18%; kinase still bound, per cent of control (CLK4 (human)): 25%; kinase still bound, per cent of control [4]: 33%
3 | CS(=O)(=O)Nc1ccc(-c2ncc(/C=C3\SC(=N)NC3=O)s2)cc1 |  | 29% | 11% | 13% |  | 28% |  | 4% | 16% | 2.8% | 4.3% |  | 3.1% | 7.9% |  | 24% | 2.6% |  |  | 14% | kinase still bound, per cent of control (CSNK1G3 (human)): 8.3%
4 | N=C1NC(=O)/C(=C/c2c[nH]c(=O)c(-c3ccc(N4CCNCC4)nc3)c2)S1 | 3.5% |  |  |  |  |  |  | 2.7% | 18% | 30% | 1.8% | 32% | 1% | 9% | 33% | 1.7% |  | 9.4% | 23% | 11% | kinase still bound, per cent of control (RPS6KA5 KD2 (human)): 11%; kinase still bound, per cent of control (MELK (human)): 27%; kinase still bound, per cent of control (CLK4 (human)): 16%; kinase still bound, per cent of control (ACVR1 (human)): 29%; kinase still bound, per cent of control [3]: 33%; kinase still bound, per cent of control [4]: 1.4%
5 | CSC1=NC(=O)/C(=C/c2c[nH]c(=O)c(-c3ccc(NS(C)(=O)=O)cc3)c2)S1 | 18% | 31% | 14% |  | 14% |  | 32% | 3.7% |  | 3.4% | 1.7% | 6.2% | 15% |  | 13% | 5% |  | 7.4% | 14% | 7.4% | kinase still bound, per cent of control (RPS6KA5 KD2 (human)): 11%; kinase still bound, per cent of control (STK16 (human)): 21%; kinase still bound, per cent of control (RIPK4 (human)): 8.4%; kinase still bound, per cent of control (CAMKK1 (human)): 25%; kinase still bound, per cent of control [4]: 16%
6 | CS(=O)(=O)Nc1ccc(-c2cncc(/C=C3\SC(=N)NC3=O)c2)cc1 |  |  | 5.6% | 24% | 3.4% | 28% |  |  | 19% |  |  |  | 17% | 5.5% | 32% | 5.4% | 19% | 19% | 34% | 10% | kinase still bound, per cent of control (CSNK1D (human)): 1.4%; kinase still bound, per cent of control (PRKD3 (human)): 24%; kinase still bound, per cent of control (AURKB (human)): 24%; kinase still bound, per cent of control (CIT (human)): 0.8%; kinase still bound, per cent of control (KIT (human)): 8.2%; kinase still bound, per cent of control (RIPK4 (human)): 5.8%; kinase still bound, per cent of control [1]: 24%; kinase still bound, per cent of control [2]: 25%; kinase still bound, per cent of control (GSK3A (human)): 13%; kinase still bound, per cent of control (RIOK2 (human)): 23%; kinase still bound, per cent of control (ACVR1 (human)): 1.8%; kinase still bound, per cent of control (CSNK1G3 (human)): 1%
